# Data taken from patent publication US6737383B1, “Herbicidal oxadiazolidines” (priority 1999, dated 2004).
# Legend:
# [1] = system: bamyardgrass; experiment: Test B flood test barnyardgrass; assay type: in vivo, Echinochloa crus-galli
# In short: (§1)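 Flood test on plants grown to the 2-leaf stage; treated plants kept in greenhouse twelve to sixteen days, then visually rated against controls on a 0 (no effect) to 10 (complete control) scale.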
# [2] = system: wheat; experiment: Test B pre/postemergence wheat; assay type: in vivo, Triticum aestivum
# In short: (§2)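 Response is a visual 0-to-10 score relative to untreated plants, where 0 means no effect and 10 means complete control, taken twelve to sixteen days after application. Treatments went onto soil at planting and onto foliage of 1- to 4-leaf plants, using a surfactant-containing non-phytotoxic solvent.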
# [3] = system: blackgrass; experiment: Test B pre/postemergence blackgrass; assay type: in vivo, Alopecurus myosuroides
# In short: as §2
# [4] = system: sugar beet; experiment: Test B pre/postemergence sugar beet; assay type: in vivo, Beta vulgaris
# In short: as §2
# [5] = system: giant foxtail; experiment: Test B pre/postemergence giant foxtail; assay type: in vivo, Setaria faberii
# In short: as §2
# [6] = system: bedstraw; experiment: Test B pre/postemergence bedstraw; assay type: in vivo, Galium aparine
# In short: as §2
# [7] = system: rice; experiment: Test B flood test rice; assay type: in vivo, Oryza sativa
# In short: as §1
# [8] = system: morningglory; experiment: Test B pre/postemergence morningglory; assay type: in vivo, Ipomoea hederacea
# In short: as §2
# [9] = system: duck salad; experiment: Test B flood test duck salad; assay type: in vivo, Heteranthera limosa
# In short: as §1
# [10] = system: crabgrass; experiment: Test B pre/postemergence crabgrass; assay type: in vivo, Digitaria sanguinalis
# In short: as §2
# [11] = system: purple nutsedge; experiment: Test B pre/postemergence purple nutsedge; assay type: in vivo, Cyperus rotundus
# In short: as §2
# [12] = system: velvetleaf; experiment: Test B pre/postemergence velvetleaf; assay type: in vivo, Abutilon theophrasti
# In short: as §2
# [13] = system: cocklebur; experiment: Test B pre/postemergence cocklebur; assay type: in vivo, Xanthium strumarium
# In short: as §2
# [14] = system: surinam grass; experiment: Test B pre/postemergence surinam grass; assay type: in vivo, Brachiaria decumbens
# In short: as §2
# [15] = system: wild oat; experiment: Test B pre/postemergence wild oat; assay type: in vivo, Avena fatua
# In short: as §2
# [16] = system: pigweed; experiment: Test B pre/postemergence pigweed; assay type: in vivo, Amaranthus retroflexus
# In short: as §2
# [17] = Postemergence, Rate 62 g/ha, scale 0 to 10, 0 is no effect, 10 is complete control
# [18] = Rate 125 g/ha, Postemergence section (flood test species), scale 0 to 10, 0 no effect, 10 complete control
# [19] = Rate 500 g/ha, listed under Postemergence (flood test species), scale 0 to 10, 0 no effect, 10 complete control
# [20] = flood test, listed under Postemergence, Rate 250 g/ha, scale 0 to 10, 0 no effect, 10 complete control
# [21] = Postemergence, Rate 250 g/ha, scale 0 to 10, 0 no effect, 10 complete control
# [22] = Preemergence, Rate 62 g/ha, scale 0 to 10 (0 no effect, 10 complete control)
# [23] = Preemergence, Rate 125 g/ha, scale 0 to 10 (0 no effect, 10 complete control)
# [24] = Preemergence, Rate 250 g/ha, scale of 0 to 10 where 0 is no effect and 10 is complete control
# [25] = Preemergence, Rate 500 g/ha, scale 0 (no effect) to 10 (complete control)
# [26] = Rate 125 g/ha, Postemergence, scale 0 to 10, 0 no effect, 10 complete control
# [27] = Rate 500 g/ha, Postemergence, scale 0 to 10, 0 no effect, 10 complete control
structure (smiles),measurement,setting,value
COc1cccc(C)c1-n1c(=O)on(C(=O)N(c2ccccc2)C(C)C)c1=O [Compound 73],Barnyardgrass plant response rating,[1]; [17],0
same,Barnyardgrass plant response rating,[1]; [18],0
same,Barnyardgrass plant response rating,[1]; [19],0
same,Barnyardgrass plant response rating,[1]; [20],0
same,Wheat plant response rating,[2]; [17],0
same,Wheat plant response rating,[2]; [21],0
same,Wheat plant response rating,[2]; [22],0
same,"Plant response rating, Wheat",[2]; [23],0
same,"Plant response rating, Wheat",[2]; [24],0
same,Wheat plant response rating,[2]; [25],0
same,Wheat plant response rating,[2]; [26],0
same,Wheat plant response rating,[2]; [27],2
same,Blackgrass plant response rating,[3]; [17],0
same,Blackgrass plant response rating,[3]; [21],0
same,Blackgrass plant response rating,[3]; [22],0
same,"Plant response rating, Blackgrass",[3]; [23],0
same,"Plant response rating, Blackgrass",[3]; [24],0
same,Blackgrass plant response rating,[3]; [25],0
same,Blackgrass plant response rating,[3]; [26],0
same,Blackgrass plant response rating,[3]; [27],2
same,Sugarbeets plant response rating,[4]; [17],0
same,Sugarbeets plant response rating,[4]; [21],0
same,Sugarbeets plant response rating,[4]; [22],0
same,"Plant response rating, Sugarbeets",[4]; [23],0
same,"Plant response rating, Sugarbeets",[4]; [24],0
same,Sugarbeets plant response rating,[4]; [25],0
same,Sugarbeets plant response rating,[4]; [26],0
same,Sugarbeets plant response rating,[4]; [27],0
same,Giant foxtail plant response rating,[5]; [17],0
same,Giant foxtail plant response rating,[5]; [21],2
same,Giant foxtail plant response rating,[5]; [22],2
same,"Plant response rating, Giant foxtail",[5]; [23],7
same,"Plant response rating, Giant foxtail",[5]; [24],9
same,Giant foxtail plant response rating,[5]; [25],10
same,Giant foxtail plant response rating,[5]; [26],0
same,Giant foxtail plant response rating,[5]; [27],4
same,Bedstraw plant response rating,[6]; [17],0
same,Bedstraw plant response rating,[6]; [21],7
same,Bedstraw plant response rating,[6]; [22],0
same,"Plant response rating, Bedstraw",[6]; [23],0
same,"Plant response rating, Bedstraw",[6]; [24],0
same,Bedstraw plant response rating,[6]; [25],0
same,Bedstraw plant response rating,[6]; [26],0
same,Bedstraw plant response rating,[6]; [27],7
same,Rice plant response rating,[7]; [17],0
same,Rice plant response rating,[7]; [18],0
same,Rice plant response rating,[7]; [19],0
same,Rice plant response rating,[7]; [20],0
same,Morningglory plant response rating,[8]; [17],3
same,Morningglory plant response rating,[8]; [21],4
same,Morningglory plant response rating,[8]; [22],0
same,"Plant response rating, Morningglory",[8]; [23],0
same,"Plant response rating, Morningglory",[8]; [24],0
same,Morningglory plant response rating,[8]; [25],0
same,Morningglory plant response rating,[8]; [26],3
same,Morningglory plant response rating,[8]; [27],4
same,Ducksalad plant response rating,[9]; [17],0
same,Ducksalad plant response rating,[9]; [18],0
same,Ducksalad plant response rating,[9]; [19],0
same,Ducksalad plant response rating,[9]; [20],0
same,Crabgrass plant response rating,[10]; [17],0
same,Crabgrass plant response rating,[10]; [21],2
same,Crabgrass plant response rating,[10]; [22],1
same,"Plant response rating, Crabgrass",[10]; [23],5
same,"Plant response rating, Crabgrass",[10]; [24],8
same,Crabgrass plant response rating,[10]; [25],9
same,Crabgrass plant response rating,[10]; [26],0
same,Crabgrass plant response rating,[10]; [27],6
same,Nutsedge plant response rating,[11]; [17],0
same,Nutsedge plant response rating,[11]; [21],0
same,Nutsedge plant response rating,[11]; [22],0
same,"Plant response rating, Nutsedge",[11]; [23],0
same,"Plant response rating, Nutsedge",[11]; [24],0
same,Nutsedge plant response rating,[11]; [25],0
same,Nutsedge plant response rating,[11]; [26],0
same,Nutsedge plant response rating,[11]; [27],0
same,Velvetleaf plant response rating,[12]; [17],0
same,Velvetleaf plant response rating,[12]; [21],4
same,Velvetleaf plant response rating,[12]; [22],0
same,"Plant response rating, Velvetleaf",[12]; [23],0
same,"Plant response rating, Velvetleaf",[12]; [24],0
same,Velvetleaf plant response rating,[12]; [25],0
same,Velvetleaf plant response rating,[12]; [26],3
same,Velvetleaf plant response rating,[12]; [27],5
same,Cocklebur plant response rating,[13]; [17],0
same,Cocklebur plant response rating,[13]; [21],0
same,Cocklebur plant response rating,[13]; [22],0
same,"Plant response rating, Cocklebur",[13]; [23],0
same,"Plant response rating, Cocklebur",[13]; [24],0
same,Cocklebur plant response rating,[13]; [25],0
same,Cocklebur plant response rating,[13]; [26],0
same,Cocklebur plant response rating,[13]; [27],2
same,B. signalgrass plant response rating,[14]; [17],0
same,B. signalgrass plant response rating,[14]; [21],0
same,B. signalgrass plant response rating,[14]; [22],0
same,"Plant response rating, B. signalgrass",[14]; [23],0
same,"Plant response rating, B. signalgrass",[14]; [24],0
same,B. signalgrass plant response rating,[14]; [25],0
same,B. signalgrass plant response rating,[14]; [26],0
same,B. signalgrass plant response rating,"[14]; Rate 500 g/ha, Postemergence, scale of 0 to 10 where 0 is no effect and 10 is complete control",3
same,Wild oats plant response rating,[15]; [17],0
same,Wild oats plant response rating,[15]; [21],2
same,Wild oats plant response rating,[15]; [22],0
same,"Plant response rating, Wild oats",[15]; [23],0
same,"Plant response rating, Wild oats",[15]; [24],0
same,Wild oats plant response rating,[15]; [25],0
same,Wild oats plant response rating,[15]; [26],0
same,Wild oats plant response rating,[15]; [27],6
same,Redroot pigweed plant response rating,[16]; [17],0
same,Redroot pigweed plant response rating,[16]; [21],0
same,Redroot pigweed plant response rating,[16]; [22],0
same,"Plant response rating, Redroot pigweed",[16]; [23],0
same,"Plant response rating, Redroot pigweed",[16]; [24],0
same,Redroot pigweed plant response rating,[16]; [25],0
same,Redroot pigweed plant response rating,[16]; [26],0
same,Redroot pigweed plant response rating,[16]; [27],0
